Where a name gives a salt, the structure may show the parent alone.
| SMILES | melting point |
| --- | --- |
| Cc1cccc(C)c1C(C[N+](C)(C)C)OCCCc1c(F)cccc1F.[I-] (stereo not shown) | 190 °C |
| Cc1cccc(C)c1C(CNCc1ccccc1)OCCCc1c(F)cccc1F (stereo not shown) (as salt: hydrochloride) [Example 23, N-[2-[3-(2,6-difluorophenyl)propoxy]-2-(2,6-dimethylphenyl)ethyl]-N-benzylamine] | 176 °C |
| Cc1cccc(C)c1C(CN(Cc1ccccc1)Cc1ccccc1)OCCCc1c(F)cccc1F (stereo not shown) (as salt: hydrochloride) [Example 24, N-[2-[3-(2,6-difluorophenyl)propoxy]-2-(2,6-dimethylphenyl)ethyl]-N,N-bis(benzyl)amine] | 108 °C |
| C=C(C)C1CC=C(CNCC(OCCCc2c(F)cccc2F)c2c(C)cccc2C)CC1 (stereo not shown) (as salt: hydrochloride) [Example 25, N-[2-[3-(2,6-difluorophenyl)propoxy]-2-(2,6-dimethylphenyl)ethyl]-N-(4-isopropenylcyclohexen-1-ylmethyl)amine] | 155 °C |
| Cc1cccc(C)c1C(CN1CCCCC1)OCc1ccccc1 (stereo not shown) (as salt: hydrochloride) [Example 38, 1-[2-benzyloxy-2-(2,6-dimethylphenyl)ethyl]piperidine] | 197 to 199 °C |
| Cc1cccc(C)c1C(CN1CCCCC1)OCc1ccc(Br)cc1 (stereo not shown) (as salt: hydrochloride) [Example 39, 1-[2-(4-bromobenzyloxy)-2-(2,6-dimethylphenyl)ethyl]piperidine] | 152 to 154 °C |
| Cc1cccc(C)c1C(CN1CCCCC1)OCc1ccc(Cl)cc1 (stereo not shown) (as salt: hydrochloride) [Example 40, 1-[2-(4-chlorobenzyloxy)-2-(2,6-dimethylphenyl)ethyl]piperidine] | 134 to 135 °C |
| Cc1cccc(C)c1C(CN1CCCCC1)OCc1ccc(Br)cc1Cl (stereo not shown) (as salt: hydrochloride) [Example 43, 1-[2-(2-chloro-4-bromobenzyloxy)-2-(2,6-dimethylphenyl)ethyl]piperidine] | 222 to 224 °C |
| Cc1cccc(C)c1C(CN(C)CC1CC1)OCCCc1c(F)cccc1F (stereo not shown) [Example 10, N-[2-[3-(2,6-difluorophenyl)propoxy]-2-(2,6-dimethylphenyl)ethyl]-N-cyclopropylmethyl-N-methylamine] | 78 °C |

Now from value to compound:

| melting point | SMILES |
| --- | --- |
| > 200 °C | Cc1cccc(C)c1C(CN1CCCCC1)OCCCc1c(F)cccc1F (stereo not shown) (as salt: hydrochloride) [Example 14, 1-[2-[3-(2,6-difluorophenyl)propoxy]-2-(2,6-dimethylphenyl)ethyl]piperidine] |
| 145 °C | Cc1cccc(C)c1C(CN1CCCCC1)NCCCc1c(F)cccc1F (stereo not shown) (as salt: hydrochloride) [Example 35, [3-(2,6-difluorophenyl)propyl]-[1-(2,6-dimethylphenyl)-2-piperidin-1-ylethyl]amine] |
| 225 to 227 °C | Cc1cccc(C)c1C(CN1CCCCC1)OCc1c(Cl)cccc1Cl (stereo not shown) (as salt: hydrochloride) [Example 41, 1-[2-(2,6-dichlorobenzyloxy)-2-(2,6-dimethylphenyl)ethyl]piperidine] |
| 183 to 185 °C | Cc1cccc(C)c1C(CN1CCCCC1)OCc1c(F)cccc1F (stereo not shown) (as salt: hydrochloride) [Example 42, 1-[2-(2,6-difluorobenzyloxy)-2-(2,6-dimethylphenyl)ethyl]piperidine] |
